Data reported in publication PMC7949135, “Structural analysis of carbohydrate binding by the macrophage mannose receptor CD206” (The Journal of Biological Chemistry, 2021).
Like-named read-outs stand apart in the source and are kept apart here.

Target: T1, biotin-tagged CRD4 (carbohydrate-recognition domain 4 of the mannose receptor, CD206) (Homo sapiens, UniProt P22897)
T1 construct: gene MRC1; borders from residues reported in crystals
T1 sequence (P22897 646-779): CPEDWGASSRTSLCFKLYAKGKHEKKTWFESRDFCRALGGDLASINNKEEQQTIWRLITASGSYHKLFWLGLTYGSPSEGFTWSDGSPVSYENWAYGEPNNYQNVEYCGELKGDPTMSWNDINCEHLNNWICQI
Assay: solid-phase competition with horseradish peroxidase, CRD4 immobilised on streptavidin plates
Format: binding
Text: solid-phase competition with horseradish peroxidase, CRD4 immobilised on streptavidin plates on biotin-tagged CRD4 (carbohydrate-recognition domain 4 of the mannose receptor, CD206)

[1] = competitive, 2.5 mM CaCl2, 150 mM NaCl, 25 mM Tris-Cl pH 7.8, 4 °C

Compound	Ki [1] [µM]	Ki [µM]
OC[C@H]1O[C@H](OC[C@H]2OC(O)[C@@H](O)[C@@H](O[C@H]3O[C@H](CO)[C@@H](O)[C@H](O)[C@@H]3O)[C@@H]2O)[C@@H](O)[C@@H](O)[C@@H]1O (some centres unmarked) [Manα1-6(Manα1-3)Man]	300 ± 80	–
OC[C@H]1O[C@H](O[C@H]2[C@H](O)[C@@H](CO)OC(O)[C@H]2O)[C@@H](O)[C@@H](O)[C@@H]1O (some centres unmarked) [Manα1-3Man]	860 ± 50	–
CC(=O)N[C@H]1[C@H](O[C@H]2[C@H](O)[C@@H](NC(C)=O)C(O)O[C@@H]2CO)O[C@H](CO)[C@@H](O[C@@H]2O[C@H](CO[C@H]3O[C@H](CO[C@H]4O[C@H](CO)[C@@H](O)[C@H](O)[C@@H]4O[C@H]4O[C@H](CO)[C@@H](O)[C@H](O)[C@@H]4O)[C@@H](O)[C@H](O[C@H]4O[C@H](CO)[C@@H](O)[C@H](O)[C@@H]4O[C@H]4O[C@H](CO)[C@@H](O)[C@H](O)[C@@H]4O)[C@@H]3O)[C@@H](O)[C@H](O[C@H]3O[C@H](CO)[C@@H](O)[C@H](O)[C@@H]3O[C@H]3O[C@H](CO)[C@@H](O)[C@H](O)[C@@H]3O[C@H]3O[C@H](CO)[C@@H](O)[C@H](O)[C@@H]3O)[C@@H]2O)[C@@H]1O (some centres unmarked) [Man9]	23 ± 0.4	–
CO[C@@H]1O[C@@H](C)[C@@H](O)[C@@H](O)[C@@H]1O [αMeFuc]	–	110 ± 20
CO[C@H]1O[C@H](CO)[C@@H](O)[C@H](O)[C@@H]1O [α-Methyl mannose]	–	900 ± 100
OC[C@H]1O[C@H](O[C@H]2[C@H](O)[C@H](O)C(O)O[C@@H]2CO)[C@@H](O)[C@@H](O)[C@@H]1O (some centres unmarked) [Manα1-4Man]	730 ± 70	–
OC[C@H]1O[C@H](OC[C@H]2OC(O)[C@@H](O)[C@@H](O)[C@@H]2O)[C@@H](O)[C@@H](O)[C@@H]1O (some centres unmarked) [Manα1-6Man]	380 ± 30	–
OC[C@H]1O[C@H](O[C@@H]2C(O)O[C@H](CO)[C@@H](O)[C@@H]2O)[C@@H](O)[C@@H](O)[C@@H]1O (some centres unmarked) [Manα1-2Man]	480 ± 40	–
